Like-named read-outs stand apart in the source and are kept apart here.
Experiments:
Assay type in all cases: cell-based
TK-10 = assay: NCI 60 five-dose screen TK-10; conditions: Homo sapiens
NCI-H226 = assay: NCI 60 five-dose screen NCI-H226; conditions: Homo sapiens
SK-MEL-5 = assay: NCI 60 five-dose screen SK-MEL-5; conditions: Homo sapiens
SK-OV-3 = assay: NCI 60 five-dose screen SK-OV-3; conditions: Homo sapiens
UO-31 = assay: NCI 60 five-dose screen UO-31; conditions: Homo sapiens
MDA-MB-231/ATCC = assay: NCI 60 five-dose screen MDA-MB-231/ATCC; conditions: Homo sapiens
MDA-MB-468 = assay: NCI 60 five-dose screen MDA-MB-468; conditions: Homo sapiens
MALME-3M = assay: NCI 60 five-dose screen MALME-3M; conditions: Homo sapiens, Malme-3M
SK-MEL-28 = assay: NCI 60 five-dose screen SK-MEL-28; conditions: Homo sapiens
DU-145 = assay: NCI 60 five-dose screen DU-145; conditions: Homo sapiens
786-0 = assay: NCI 60 five-dose screen 786-0; conditions: Homo sapiens
LOX IMVI = assay: NCI 60 five-dose screen LOX IMVI; conditions: Homo sapiens
EKVX = assay: NCI 60 five-dose screen EKVX; conditions: Homo sapiens
K-562 = assay: NCI 60 five-dose screen K-562; conditions: Homo sapiens
MDA-MB-435 = assay: NCI 60 five-dose screen MDA-MB-435; conditions: Homo sapiens
SW-620 = assay: NCI 60 five-dose screen SW-620; conditions: Homo sapiens
RPMI-8226 = assay: NCI 60 five-dose screen RPMI-8226; conditions: Homo sapiens
[1] = test system: MV-4-11 acute myeloid leukemia cells; assay: CellTiter-Glo 2.0 cell viability, MV-4-11; conditions: Homo sapiens
Procedure, shortened: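 MV4-11 cells plated at 3,000 cells/well on pre-dispensed compounds and incubated 3 days at 37 °C, 5% CO2. Viability read as ATP-dependent luminescence with CellTiter-Glo 2.0 after 20 min at ambient temperature, followed by regression analysis.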

SNB-19 = assay: NCI 60 five-dose screen SNB-19; conditions: Homo sapiens
NCI-H23 = assay: NCI 60 five-dose screen NCI-H23; conditions: Homo sapiens
RXF 393 = assay: NCI 60 five-dose screen RXF 393; conditions: Homo sapiens
BT-549 = assay: NCI 60 five-dose screen BT-549; conditions: Homo sapiens
MOLT-4 = assay: NCI 60 five-dose screen MOLT-4; conditions: Homo sapiens
PC-3 = assay: NCI 60 five-dose screen PC-3; conditions: Homo sapiens
OVCAR-3 = assay: NCI 60 five-dose screen OVCAR-3; conditions: Homo sapiens
[2] = read-out: LC50 (the source's name) (converted)
[3] = read-out: LC50 (the source's name)

Work on `O=c1ccc(Cn2c(C(F)(F)F)cc3c(Cl)ncnc32)c[nH]1` [NUCC-0226698] yielded a GI50 (TK-10) of at least 100 µM, an IC50 (TK-10) of 100 µM and an IC (TGI) (TK-10) of 100 µM. It also gave a CC50 (TK-10; [2]) of at least 100 µM, a GI50 (NCI-H226) of 31.6 µM and an IC50 (NCI-H226) of 100 µM. It also gave an IC (TGI) (NCI-H226) of 100 µM, a CC50 (NCI-H226; [2]) of at least 100 µM and a GI50 (SK-MEL-5) of 4.07 µM. For the same compound, the IC50 (SK-MEL-5) was 7.08 µM, the IC (TGI) (SK-MEL-5) was 15.1 µM and the CC50 (SK-MEL-5; [2]) was 38.9 µM. It also gave a GI50 (SK-OV-3) of 44.7 µM, an IC50 (SK-OV-3) of 100 µM and an IC (TGI) (SK-OV-3) of 100 µM. It also gave a CC50 (SK-OV-3; [2]) of at least 100 µM, a GI50 (UO-31) of 5.01 µM and an IC50 (UO-31) of 14.1 µM. The IC (TGI) (UO-31) was 19.1 µM, the CC50 (UO-31; [2]) was 47.9 µM and the GI50 (MDA-MB-231/ATCC) was 4.68 µM. For the same compound, the IC50 (MDA-MB-231/ATCC) was 10 µM, the IC (TGI) (MDA-MB-231/ATCC) was 18.2 µM and the CC50 (MDA-MB-231/ATCC; [2]) was 57.5 µM. It also gave a GI50 (MDA-MB-468) of 2.09 µM, an IC50 (MDA-MB-468) of 8.13 µM and an IC (TGI) (MDA-MB-468) of 5.75 µM. For the same compound, the CC50 (MDA-MB-468; [2]) was 25.1 µM, the GI50 (MALME-3M) was 15.8 µM and the IC50 (MALME-3M) was 36.3 µM. It also gave an IC (TGI) (MALME-3M) of 34.7 µM, a CC50 (MALME-3M; [2]) of 77.6 µM and a GI50 (SK-MEL-28) of 3.89 µM. For the same compound, the IC50 (SK-MEL-28) was 7.59 µM, the IC (TGI) (SK-MEL-28) was 18.6 µM and the CC50 (SK-MEL-28; [2]) was 66.1 µM. It also gave a GI50 (DU-145) of 38.9 µM, an IC50 (DU-145) of 61.7 µM and an IC (TGI) (DU-145) of 100 µM. The CC50 (DU-145; [2]) was at least 100 µM, the GI50 (786-0) was 43.7 µM and the IC50 (786-0) was 72.4 µM. For the same compound, the IC (TGI) (786-0) was 100 µM, the CC50 (786-0; [2]) was at least 100 µM and the GI50 (LOX IMVI) was 1.66 µM. It also gave an IC50 (LOX IMVI) of 2.88 µM, an IC (TGI) (LOX IMVI) of 3.09 µM and a CC50 (LOX IMVI; [2]) of 5.89 µM. It also gave a GI50 (EKVX) of 14.1 µM, an IC50 (EKVX) of 30.9 µM and an IC (TGI) (EKVX) of 36.3 µM. For the same compound, the CC50 (EKVX; [2]) was 91.2 µM, the GI50 (K-562; K562) was 2.82 µM and the IC50 (K-562; K562) was 3.39 µM. It also gave an IC (TGI) (K-562; K562) of 100 µM, a CC50 (K-562; K562, read-out: LC50 (the source's name)) of at least 100 µM and a GI50 (MDA-MB-435) of 4.68 µM. The IC50 (MDA-MB-435) was 7.24 µM, the IC (TGI) (MDA-MB-435) was 20.4 µM and the CC50 (MDA-MB-435; [2]) was 74.1 µM. The GI50 (SW-620) was 5.5 µM, the IC50 (SW-620) was 7.08 µM and the IC (TGI) (SW-620) was 26.3 µM. The CC50 (SW-620; [2]) was at least 100 µM, the GI50 (RPMI-8226) was 22.9 µM and the IC50 (RPMI-8226) was 38 µM. For the same compound, the IC (TGI) (RPMI-8226) was 100 µM, the CC50 (RPMI-8226; [3]) was at least 100 µM and the IC50 ([1]; MV4-11, 72 h, MV-4-11 cells, 3 days, CellTiter-Glo 2.0, read-out: IC50 (uM) [Cell Type: MV-4-11]) was 1.26 µM. The IC50 ([1]; MV4-11, bound stated in text, read-out: IC50 against MV-4-11 acute myeloid leukemia cells) was under 2 µM, the GI50 (SNB-19) was 20.9 µM and the IC50 (SNB-19) was 39.8 µM. For the same compound, the IC (TGI) (SNB-19) was 58.9 µM, the CC50 (SNB-19; [2]) was at least 100 µM and the GI50 (NCI-H23) was 3.98 µM. For the same compound, the IC50 (NCI-H23) was 8.71 µM, the IC (TGI) (NCI-H23) was 18.6 µM and the CC50 (NCI-H23; [2]) was 72.4 µM. The GI50 (RXF 393) was 11.2 µM, the IC50 (RXF 393) was 35.5 µM and the IC (TGI) (RXF 393) was 32.4 µM. It also gave a CC50 (RXF 393; [2]) of 91.2 µM, a GI50 (BT-549) of 14.1 µM and an IC50 (BT-549) of 29.5 µM. It also gave an IC (TGI) (BT-549) of 28.8 µM, a CC50 (BT-549; [2]) of 58.9 µM and a GI50 (MOLT-4) of 3.24 µM. The IC50 (MOLT-4) was 4.79 µM, the IC (TGI) (MOLT-4) was 17 µM and the CC50 (MOLT-4; [3]) was at least 100 µM. The GI50 (PC-3) was 17 µM, the IC50 (PC-3) was 28.2 µM and the IC (TGI) (PC-3) was 56.2 µM. The CC50 (PC-3; [2]) was at least 100 µM, the GI50 (OVCAR-3) was 14.8 µM and the IC50 (OVCAR-3) was 28.8 µM. It also gave an IC (TGI) (OVCAR-3) of 33.1 µM and a CC50 (OVCAR-3; [2]) of 72.4 µM.

Reference: US20240109903A1, “SUBSTITUTED HETEROCYCLES FOR TREATING CANCER” (Northwestern University, priority 2022, published 2024)
